Experimental data as given in the OligoGym collection.
HELM strings list units from the 5' end as sugar, base in round brackets, then linkage (d deoxyribose, r ribose, m 2'-O-methyl, p phosphodiester). Strings are as the collection lists them; they lack the last nucleoside at the 3' end of the tested compound. [moe] = 2'-O-(2-methoxyethyl) (MOE); [sp] = phosphorothioate linkage; [m5C] = 5-methylcytosine

Target: APP
Assay: mouse, dose not given
Details: ASO

Point of comparison: “RNA1{[moe](A)[sp].[moe](G)p.[moe]([m5C])p.[moe](T)p.[moe](T)[sp].d(A)[sp].d([m5C])[sp].d(A)[sp].d(T)[sp].d([m5C])[sp].d(A)[sp].d(T)[sp].d(T)[sp].d(T)[sp].d(T)[sp].[moe]([m5C])p.[moe](T)p.[moe](T)[sp].[moe](G)}$$$$ (last 3' nucleoside missing)”, 3 h FOB score 1 score 0-7. Against it:
- RNA1{[moe](A)[sp].[moe](A)p.[moe](A)p.[moe]([m5C])p.[moe](T)[sp].d([m5C])[sp].d(T)[sp].d(A)[sp].d([m5C])[sp].d([m5C])[sp].d([m5C])[sp].d([m5C])[sp].d(T)[sp].d([m5C])[sp].d(G)[sp].[moe](G)p.[moe](A)p.[moe](A)[sp].[moe]([m5C])}$$$$ (last 3' nucleoside missing) — the same, 1 score 0-7
- RNA1{[moe](A)[sp].[moe](A)p.[moe](G)p.[moe](G)p.[moe](G)[sp].d([m5C])[sp].d(A)[sp].d(T)[sp].d([m5C])[sp].d(A)[sp].d([m5C])[sp].d(T)[sp].d(T)[sp].d(A)[sp].d([m5C])[sp].[moe](A)p.[moe](A)p.[moe](A)[sp].[moe]([m5C])}$$$$ (last 3' nucleoside missing) — lower, 0 score 0-7
- RNA1{[moe](A)[sp].[moe](A)p.[moe](G)p.[moe](G)p.[moe]([m5C])[sp].d(A)[sp].d(T)[sp].d(G)[sp].d([m5C])[sp].d(A)[sp].d(T)[sp].d(T)[sp].d(T)[sp].d(T)[sp].d(T)[sp].[moe](A)p.[moe](G)p.[moe](G)[sp].[moe](G)}$$$$ (last 3' nucleoside missing) — higher, 1.67 score 0-7
- RNA1{[moe](A)[sp].[moe](A)p.[moe](G)p.[moe]([m5C])p.[moe](T)[sp].d(T)[sp].d(A)[sp].d([m5C])[sp].d(A)[sp].d(T)[sp].d([m5C])[sp].d(A)[sp].d(T)[sp].d(T)[sp].d(T)[sp].[moe](T)p.[moe]([m5C])p.[moe](T)[sp].[moe](T)}$$$$ (last 3' nucleoside missing) — higher, 1.33 score 0-7
- RNA1{[moe](A)[sp].[moe](A)p.[moe]([m5C])p.[moe](T)p.[moe]([m5C])[sp].d(G)[sp].d(A)[sp].d(A)[sp].d([m5C])[sp].d([m5C])[sp].d(A)[sp].d([m5C])[sp].d([m5C])[sp].d(T)[sp].d([m5C])[sp].[moe](T)p.[moe](T)p.[moe]([m5C])[sp].[moe]([m5C])}$$$$ (last 3' nucleoside missing) — lower, 0 score 0-7
- RNA1{[moe](A)[sp].[moe](G)p.[moe](A)p.[moe](T)p.[moe](A)[sp].d([m5C])[sp].d(T)[sp].d(T)[sp].d(G)[sp].d(T)[sp].d([m5C])[sp].d(A)[sp].d(A)[sp].d([m5C])[sp].d(G)[sp].[moe](G)p.[moe]([m5C])p.[moe](A)[sp].[moe](T)}$$$$ (last 3' nucleoside missing) — higher, 2.33 score 0-7
- RNA1{[moe](A)[sp].[moe](G)p.[moe](G)p.[moe](A)p.[moe](A)[sp].d([m5C])[sp].d(T)[sp].d([m5C])[sp].d(G)[sp].d(A)[sp].d(A)[sp].d([m5C])[sp].d([m5C])[sp].d(A)[sp].d([m5C])[sp].[moe]([m5C])p.[moe](T)p.[moe]([m5C])[sp].[moe](T)}$$$$ (last 3' nucleoside missing) — the same, 1 score 0-7
- RNA1{[moe](A)[sp].[moe](G)p.[moe](G)p.[moe](A)p.[moe]([m5C])[sp].d(A)[sp].d(T)[sp].d(T)[sp].d([m5C])[sp].d(A)[sp].d(T)[sp].d(T)[sp].d(T)[sp].d(T)[sp].d(T)[sp].[moe](G)p.[moe](A)p.[moe]([m5C])[sp].[moe]([m5C])}$$$$ (last 3' nucleoside missing) — the same, 1 score 0-7
- RNA1{[moe](A)[sp].[moe](G)p.[moe](G)p.[moe](T)p.[moe]([m5C])[sp].d(T)[sp].d([m5C])[sp].d(T)[sp].d(A)[sp].d(T)[sp].d(A)[sp].d(T)[sp].d(T)[sp].d(T)[sp].d(T)[sp].[moe](G)p.[moe](G)p.[moe](T)[sp].[moe]([m5C])}$$$$ (last 3' nucleoside missing) — lower, 0.33 score 0-7
- RNA1{[moe](A)[sp].[moe](G)p.[moe](T)p.[moe](A)p.[moe]([m5C])[sp].d(A)[sp].d(T)[sp].d(A)[sp].d(T)[sp].d(T)[sp].d([m5C])[sp].d(A)[sp].d(T)[sp].d(T)[sp].d([m5C])[sp].[moe](A)p.[moe](A)p.[moe](T)[sp].[moe]([m5C])}$$$$ (last 3' nucleoside missing) — lower, 0 score 0-7
- RNA1{[moe](A)[sp].[moe](G)p.[moe]([m5C])p.[moe](A)p.[moe](T)[sp].d([m5C])[sp].d(T)[sp].d(T)[sp].d(T)[sp].d(T)[sp].d(A)[sp].d([m5C])[sp].d(T)[sp].d(A)[sp].d(T)[sp].[moe]([m5C])p.[moe](T)p.[moe](G)[sp].[moe]([m5C])}$$$$ (last 3' nucleoside missing) — lower, 0.67 score 0-7
- RNA1{[moe](A)[sp].[moe](T)p.[moe](A)p.[moe](T)p.[moe](T)p.[moe](T)p.d(G)[sp].d(T)[sp].d([m5C])[sp].d(A)[sp].d(A)[sp].d([m5C])[sp].d([m5C])[sp].d([m5C])[sp].d(A)[sp].d(G)[sp].[moe](A)p.[moe](A)[sp].[moe]([m5C])}$$$$ (last 3' nucleoside missing) — the same, 1 score 0-7
- RNA1{[moe](A)[sp].[moe](T)p.[moe](G)p.[moe](G)p.[moe](A)[sp].d(T)[sp].d([m5C])[sp].d(T)[sp].d(G)[sp].d(A)[sp].d(A)[sp].d(T)[sp].d([m5C])[sp].d([m5C])[sp].d([m5C])[sp].[moe](A)p.[moe]([m5C])p.[moe](T)[sp].[moe](T)}$$$$ (last 3' nucleoside missing) — the same, 1 score 0-7
- RNA1{[moe](A)[sp].[moe](T)p.[moe](G)p.[moe](T)p.[moe](G)[sp].d(A)[sp].d(T)[sp].d(T)[sp].d(T)[sp].d([m5C])[sp].d(A)[sp].d([m5C])[sp].d(T)[sp].d(A)[sp].d(A)[sp].[moe]([m5C])p.[moe]([m5C])p.[moe](G)[sp].[moe](G)}$$$$ (last 3' nucleoside missing) — lower, 0 score 0-7
- RNA1{[moe](A)[sp].[moe](T)p.[moe](G)p.[moe](T)p.[moe](G)p.[moe](A)[sp].d(T)[sp].d(T)[sp].d(T)[sp].d([m5C])[sp].d(A)[sp].d([m5C])[sp].d(T)[sp].d(A)[sp].d(A)[sp].d([m5C])[sp].[moe]([m5C])p.[moe](G)[sp].[moe](G)}$$$$ (last 3' nucleoside missing) — lower, 0 score 0-7
- RNA1{[moe](A)[sp].[moe](T)p.[moe](G)p.[moe](T)p.[moe](T)[sp].d([m5C])[sp].d(A)[sp].d(T)[sp].d(T)[sp].d([m5C])[sp].d(T)[sp].d([m5C])[sp].d(A)[sp].d(T)[sp].d([m5C])[sp].[moe]([m5C])p.[moe]([m5C])p.[moe]([m5C])[sp].[moe](A)}$$$$ (last 3' nucleoside missing) — the same, 1 score 0-7
- RNA1{[moe](A)[sp].[moe](T)p.[moe](G)p.[moe]([m5C])p.[moe](A)[sp].d(T)[sp].d([m5C])[sp].d(A)[sp].d(A)[sp].d(T)[sp].d(T)[sp].d([m5C])[sp].d([m5C])[sp].d(T)[sp].d(T)[sp].[moe](T)p.[moe](G)p.[moe](G)[sp].[moe](G)}$$$$ (last 3' nucleoside missing) — lower, 0 score 0-7
- RNA1{[moe](A)[sp].[moe](T)p.[moe](T)p.[moe]([m5C])p.[moe](T)[sp].d(G)[sp].d(G)[sp].d(A)[sp].d([m5C])[sp].d(A)[sp].d(T)[sp].d(T)[sp].d([m5C])[sp].d(A)[sp].d(T)[sp].[moe](G)p.[moe](T)p.[moe](G)[sp].[moe]([m5C])}$$$$ (last 3' nucleoside missing) — the same, 1 score 0-7
- RNA1{[moe](A)[sp].[moe](T)p.[moe](T)p.[moe]([m5C])p.[moe](T)[sp].d([m5C])[sp].d(T)[sp].d(T)[sp].d(A)[sp].d(T)[sp].d(A)[sp].d(T)[sp].d(T)[sp].d([m5C])[sp].d([m5C])[sp].[moe](T)p.[moe](T)p.[moe](A)[sp].[moe]([m5C])}$$$$ (last 3' nucleoside missing) — lower, 0.5 score 0-7
- RNA1{[moe](A)[sp].[moe](T)p.[moe]([m5C])p.[moe](A)p.[moe]([m5C])[sp].d([m5C])[sp].d(A)[sp].d(G)[sp].d(T)[sp].d(T)[sp].d(T)[sp].d([m5C])[sp].d(A)[sp].d(T)[sp].d(A)[sp].[moe]([m5C])p.[moe](A)p.[moe]([m5C])[sp].[moe](T)}$$$$ (last 3' nucleoside missing) — lower, 0.25 score 0-7
- RNA1{[moe](A)[sp].[moe]([m5C])p.[moe](A)p.[moe](T)p.[moe](T)[sp].d(A)[sp].d(T)[sp].d(T)[sp].d([m5C])[sp].d(T)[sp].d(A)[sp].d(T)[sp].d(A)[sp].d(A)[sp].d(A)[sp].[moe](T)p.[moe](G)p.[moe](G)[sp].[moe](A)}$$$$ (last 3' nucleoside missing) — lower, 0 score 0-7
- RNA1{[moe](A)[sp].[moe]([m5C])p.[moe](A)p.[moe](T)p.[moe]([m5C])[sp].d(A)[sp].d(T)[sp].d(A)[sp].d(T)[sp].d(T)[sp].d([m5C])[sp].d(T)[sp].d(T)[sp].d(A)[sp].d([m5C])[sp].[moe](T)p.[moe](G)p.[moe](T)[sp].[moe](T)}$$$$ (last 3' nucleoside missing) — lower, 0 score 0-7
- RNA1{[moe](A)[sp].[moe]([m5C])p.[moe](A)p.[moe]([m5C])p.[moe](A)[sp].d([m5C])[sp].d(A)[sp].d(A)[sp].d(A)[sp].d([m5C])[sp].d(T)[sp].d([m5C])[sp].d(T)[sp].d(A)[sp].d([m5C])[sp].[moe]([m5C])p.[moe]([m5C])p.[moe]([m5C])[sp].[moe](T)}$$$$ (last 3' nucleoside missing) — lower, 0.5 score 0-7
- RNA1{[moe](A)[sp].[moe]([m5C])p.[moe](A)p.[moe]([m5C])p.[moe]([m5C])[sp].d(G)[sp].d([m5C])[sp].d([m5C])[sp].d([m5C])[sp].d(A)[sp].d([m5C])[sp].d([m5C])[sp].d(A)[sp].d(T)[sp].d(G)[sp].[moe](A)p.[moe](G)p.[moe](T)[sp].[moe]([m5C])}$$$$ (last 3' nucleoside missing) — the same, 1 score 0-7
- RNA1{[moe](A)[sp].[moe]([m5C])p.[moe](G)p.[moe](G)p.[moe](A)[sp].d([m5C])[sp].d(T)[sp].d(T)[sp].d(T)[sp].d(T)[sp].d(T)[sp].d(T)[sp].d([m5C])[sp].d(T)[sp].d(T)[sp].[moe]([m5C])p.[moe](T)p.[moe](T)[sp].[moe](G)}$$$$ (last 3' nucleoside missing) — lower, 0 score 0-7
